Experimental findings from PMC6175411, “Reversible optical control of F1Fo‐ATP synthase using photoswitchable inhibitors” (Febs Letters, 2018) are described below.

A value given as a limit tells only on which side of the number the result lay.

For the experiment, the target named is T1, Yarrowia lipolytica F1Fo-ATP synthase (YF1Fo), monomeric (Yarrowia lipolytica, UniProt Q6C326+Q6C338+Q6CFT7).
T1 construct: gene ATP1; complete, genetically unmodified native F1Fo holoenzyme, monomeric form, solubilised in DDM from Y. lipolytica mitochondria; PEG precipitation, glycerol gradient, anion exchange; remaining Fo and peripheral stalk subunits also present; with ATP synthase subunit delta, mitochondrial; ATP synthase subunit epsilon, mitochondrial; ATP synthase subunit 9, mitochondrial (subunit c); ATP synthase subunit a
The experiment is described as follows: malachite green ATP hydrolysis assay. Type of experiment: biochemical.

T1 sequence (Q6C326 25-536): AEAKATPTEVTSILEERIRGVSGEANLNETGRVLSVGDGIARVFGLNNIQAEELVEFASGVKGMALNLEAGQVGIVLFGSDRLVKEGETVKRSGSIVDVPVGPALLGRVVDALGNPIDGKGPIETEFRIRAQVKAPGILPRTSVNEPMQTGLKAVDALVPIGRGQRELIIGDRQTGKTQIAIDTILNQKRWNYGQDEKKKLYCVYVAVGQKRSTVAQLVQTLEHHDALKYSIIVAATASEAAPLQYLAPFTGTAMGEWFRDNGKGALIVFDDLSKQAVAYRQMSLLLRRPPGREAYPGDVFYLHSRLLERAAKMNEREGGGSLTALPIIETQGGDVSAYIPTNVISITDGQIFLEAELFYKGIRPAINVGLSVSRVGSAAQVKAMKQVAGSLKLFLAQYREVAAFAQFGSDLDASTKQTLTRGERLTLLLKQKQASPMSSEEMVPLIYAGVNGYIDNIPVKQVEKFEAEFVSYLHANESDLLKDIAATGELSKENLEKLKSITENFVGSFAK
T1 sequence (Q6CFT7 33-509): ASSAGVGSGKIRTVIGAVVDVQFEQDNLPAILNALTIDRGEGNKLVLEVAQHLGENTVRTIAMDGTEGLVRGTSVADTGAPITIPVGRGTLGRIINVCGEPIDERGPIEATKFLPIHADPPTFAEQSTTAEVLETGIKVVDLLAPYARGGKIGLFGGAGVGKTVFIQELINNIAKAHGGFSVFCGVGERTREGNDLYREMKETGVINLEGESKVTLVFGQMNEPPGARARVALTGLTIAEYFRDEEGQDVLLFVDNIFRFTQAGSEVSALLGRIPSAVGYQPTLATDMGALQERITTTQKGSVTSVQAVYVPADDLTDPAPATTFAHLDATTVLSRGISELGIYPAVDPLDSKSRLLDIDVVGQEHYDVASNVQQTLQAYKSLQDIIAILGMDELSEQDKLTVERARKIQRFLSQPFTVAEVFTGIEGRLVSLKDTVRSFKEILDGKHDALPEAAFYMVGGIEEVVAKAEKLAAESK
T1 sequence (Q6C338 22-293): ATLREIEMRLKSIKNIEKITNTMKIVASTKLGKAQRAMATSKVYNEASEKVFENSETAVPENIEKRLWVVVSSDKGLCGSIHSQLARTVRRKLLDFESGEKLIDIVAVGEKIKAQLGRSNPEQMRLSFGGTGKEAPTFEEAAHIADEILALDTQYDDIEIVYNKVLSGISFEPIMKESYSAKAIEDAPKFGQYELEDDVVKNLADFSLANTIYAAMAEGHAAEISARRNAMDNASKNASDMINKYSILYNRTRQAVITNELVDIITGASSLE
T1 sequence (Q6C877 25-162 partner): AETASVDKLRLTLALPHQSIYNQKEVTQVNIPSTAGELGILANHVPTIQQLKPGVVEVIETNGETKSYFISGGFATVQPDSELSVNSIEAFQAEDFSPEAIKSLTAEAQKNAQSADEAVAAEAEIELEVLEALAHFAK
T1 sequence (Q37695 whole entry partner): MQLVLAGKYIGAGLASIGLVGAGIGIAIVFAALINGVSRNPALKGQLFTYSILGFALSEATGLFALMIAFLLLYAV

Usually IC50 stands for the concentration needed to halve the response being measured. For the compound `Oc1ccc(/N=N/c2cc(O)cc(O)c2)cc1` [PIAS-1, 5‐((4‐hydroxyphenyl)diazenyl)benzene‐1,3‐diol], it took 140 ± 56.6 µM to reach half-maximal inhibition (IC50).

`COc1cc(/N=N/c2ccc(O)cc2)cc(OC)c1` [PIAS-2, 4‐((3,5‐dimethoxyphenyl)diazenyl)phenol] had an IC50 greater than 200 µM.

The compound `COc1cc(/N=N/c2ccc(O)c(OC)c2)cc(OC)c1` [PIAS-3, 4‐((3,5‐dimethoxyphenyl)diazenyl)‐2‐methoxyphenol] had a half-inhibitory concentration (IC50) greater than 200 µM.

`Oc1cc(O)cc(/N=N/c2ccc(O)c(O)c2)c1` [PIAS-4, 4‐((3,5‐dihydroxyphenyl)diazenyl)benzene‐1,2‐diol] yielded an IC50 of 14 ± 2.7 µM.

The compound `Oc1ccc(/C=C/c2cc(O)cc(O)c2)cc1` [resveratrol] came in with an IC50 of 185 ± 17.7 µM.
